According to patent US9504722B2, “Anti-obese compositions containing holoptelea integrifolia extracts” (Laila Nutraceuticals, priority 2007, dated 2016):

Key:
[1] = tested on: diet induced obese Sprague-Dawley rats; assay: Anti-obese activity in diet induced obese rats (therapeutic); format: in vivo, rat; settings: 7 mg/kg body weight, 5 weeks after 8 weeks high fat diet, vs control group
Procedure: Anti-Obese Activity of Holoptelea integrifolia in Diet Induced Obese Rats.
Selected healthy Sprague-Dawley rats were randomly assigned to control or various treatment groups (n=6). All the animals allocated for the study were made obese through dietary intervention by feeding high fat diet ad libitum for 8 weeks. After 8 weeks, the treatment group of animals was given oral administration of 250 mg/kg or 500 mg/kg of Holoptelea integrifolia alcohol extract in 10 mL of 0.5% CMC, using gastric tube for 5 week study duration. Sibutramine (7 mg/kg body weight) is used as a positive control. The control group of animals were given 10 ml/kg of 0.5% CMC. Food and water consumption were recorded daily, body weights were recorded weekly and fasting blood samples were collected before initiation after 5th week of the study. The weight gain for different groups compared at weekly intervals (FIG. II).

[2] = tested on: Sprague-Dawley rats on high fat diet; assay: Protective effect against diet induced obesity in rats; format: in vivo, rat; settings: 7 mg/kg body weight, 8 weeks, vs control group
Procedure: Protective Effect of Holoptelea integrifolia Against Diet Induced Obesity in Rats.
Selected healthy Sprague-Dawley rats were randomly assigned to control or various treatment groups (n=6). All the animals allocated for protective phase of the study were on dietary intervention by feeding high fat diet ad libitum and the animals allocated to treatment groups were simultaneously given oral administration of 100 mg or 250 mg/kg Holoptelea integrifolia methanol extract in 10 mL of 0.5% CMC, using gastric tube for the entire 8 week study duration. The test animals of the control group were simultaneously given 10 ml/kg of 0.5% CMC. Sibutramine (7 mg/kg body weight) was used as a positive control. Food and water consumption were recorded daily, body weights were recorded weekly and fasting blood samples were collected before initiation, after 4th week and 8th week (termination) of the study. The weight gain is plotted against the study duration in weeks (FIG. I). […] Upon administration of Holoptelea integrifolia alcohol extract for a period of 60 days, the level of triglyceride in the obese rats was reduced by 50% compared to the control. The levels of serum cholesterol and LDL were reduced by 40% and 45% respectively, whereas the level of HDL was increased by 25%.

Compound: CC(C)CC(N(C)C)C1(c2ccc(Cl)cc2)CCC1 (centres unmarked) [Sibutramine]
- reduction in weight gain [1]: 123.1%
- reduction in weight gain [2]: 30.5%
